Assay results from patent publication US20230373985A1 (Origenis Gmbh, priority 2020, published 2023).

Key:
[1] = molecular target: T1, wt human TYK2, catalytic site (Homo sapiens, UniProt P29597); assay: HTRF KinEASE assay, TYK2; format: biochemical; conditions: 1 μM ATP; read-out: IC50, Activity Toward TYK2
T1 construct: wt human TYK2, catalytic site; purchased SignalChem
T1 sequence (P29597 897-1176 limits assumed): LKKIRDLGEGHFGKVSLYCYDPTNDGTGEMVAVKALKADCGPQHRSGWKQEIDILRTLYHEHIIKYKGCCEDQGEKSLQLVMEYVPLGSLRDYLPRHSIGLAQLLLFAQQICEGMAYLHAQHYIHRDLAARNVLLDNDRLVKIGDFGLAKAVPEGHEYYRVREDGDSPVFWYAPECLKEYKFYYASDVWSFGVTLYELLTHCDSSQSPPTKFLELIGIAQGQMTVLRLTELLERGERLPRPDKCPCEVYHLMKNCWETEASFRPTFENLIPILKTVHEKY
How it was run: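 Kinase reaction run at room temperature for at least 30 min: 2 nM TYK2 with 1 μM ATP, or 1 nM JAK2 with 100 μM ATP, each with 1 μM biotin-TK substrate. Phosphorylation detected by HTRF (60 min antibody/XL665) and evaluated from emission ratios.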

[2] = molecular target: T2, wt human JAK1, catalytic site (Homo sapiens, UniProt P23458); assay: HTRF KinEASE assay, JAK1; format: biochemical; conditions: 2.5 μM ATP; read-out: IC50, Activity Toward JAK1
T2 construct: wt human JAK1, catalytic site; purchased ThermoFisher
How it was run: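 Compounds in DMSO dilution were mixed with kinase, biotin-TK substrate and ATP and reacted for ≥30 min at room temperature. Detection reagents (antibody, streptavidin-XL665) were read 60 min later as HTRF, with emission ratios analysed per KinEASE protocol.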

[3] = molecular target: T3, wt human LRRK2, catalytic site (Homo sapiens, UniProt Q5S007); assay: TR-FRET LanthaScreen Eu Kinase Binding Assay, LRRK2 wt; conditions: one range stated for wt and G2019, read-out: IC50, Activity Toward LRRK2(Wt)
T3 construct: 5 nM wt human LRRK2, catalytic site; purchased ThermoFisher
How it was run: (§1)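 Kinase Buffer A holding, as final levels, 8 nM full-length NUAK1, 2 nM Eu-anti-His antibody and 5 nM Tracer 236, or 5 nM LRRK2 catalytic site (wt or G2019S), 2 nM Eu-anti-GST and 10 nM Tracer 236. Compound added, then 1 h at room temperature before TR-FRET ratio readout.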

[4] = molecular target: T4, G2019S human LRRK2, catalytic site (Homo sapiens, UniProt Q5S007, G2019S); assay: TR-FRET LanthaScreen Eu Kinase Binding Assay, LRRK2 G2019S; conditions: LRRK2(G2019); one range stated for wt and G2019; read-out: IC50, Activity Toward LRRK2(G2019)
T4 construct: G2019S human LRRK2, catalytic site; purchased ThermoFisher
How it was run: as §1

[5] = molecular target: T5, wt human NUAK1, full length (Homo sapiens, UniProt O60285); assay: TR-FRET LanthaScreen Eu Kinase Binding Assay, NUAK1; conditions: read-out: IC50, Activity Toward NUAK1
T5 construct: 8 nM wt human NUAK1, full length (ThermoFisher/USA); purchased ThermoFisher
T5 sequence (O60285 1-661): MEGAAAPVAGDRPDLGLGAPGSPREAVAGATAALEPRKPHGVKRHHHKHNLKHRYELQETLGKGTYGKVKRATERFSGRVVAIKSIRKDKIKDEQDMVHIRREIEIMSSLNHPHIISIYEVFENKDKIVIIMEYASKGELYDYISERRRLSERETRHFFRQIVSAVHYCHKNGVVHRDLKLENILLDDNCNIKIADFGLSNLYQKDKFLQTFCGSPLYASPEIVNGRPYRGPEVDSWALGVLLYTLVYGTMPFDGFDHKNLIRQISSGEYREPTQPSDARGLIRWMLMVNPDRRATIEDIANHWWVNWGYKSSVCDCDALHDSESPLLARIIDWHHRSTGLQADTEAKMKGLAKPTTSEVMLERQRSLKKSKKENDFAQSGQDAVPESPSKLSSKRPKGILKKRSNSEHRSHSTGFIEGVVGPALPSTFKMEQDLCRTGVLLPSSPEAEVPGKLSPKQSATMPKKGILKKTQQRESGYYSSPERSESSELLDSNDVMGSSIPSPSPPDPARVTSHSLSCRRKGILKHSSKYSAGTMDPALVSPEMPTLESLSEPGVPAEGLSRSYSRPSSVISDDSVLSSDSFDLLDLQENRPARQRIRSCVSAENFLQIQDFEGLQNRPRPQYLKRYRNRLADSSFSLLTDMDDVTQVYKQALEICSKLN
Description: The basic protocol for TR-FRET LanthaScreen Eu Kinase Binding Assay inhibitor studies were performed as follows. LanthaScreen Kinase Binding Assays (ThermoFisher/USA) to evaluate inhibitors were performed by addition of 5 μL of test compound in corresponding DMSO dilutions/5 μl of kinase/antibody mixture, 5 μL of tracer into 384 well small volume plates. After incubation for 1 hour at room temperature, plates were read. Data analysis of emission ratios was according LanthaScreen Eu Kinase Binding Assay protocol.
Kinase and assay components were adjusted to final concentrations according to kit protocol. For LRRK2: 5 nM wt human LRRK2, catalytic site, or G2019S human LRRK2, catalytic site (ThermoFisher/USA), 2 nM Eu-Anti-GST Antibody, 10 nM Kinase Tracer 236 in 1× Kinase Buffer A. For NUAK1: 8 nM wt human NUAK1, full length (ThermoFisher/USA), 2 nM Eu-Anti-His Antibody, 5 nM Kinase Tracer 236 in 1× Kinase Buffer A.

T3 sequence (Q5S007 970-2527 limits assumed): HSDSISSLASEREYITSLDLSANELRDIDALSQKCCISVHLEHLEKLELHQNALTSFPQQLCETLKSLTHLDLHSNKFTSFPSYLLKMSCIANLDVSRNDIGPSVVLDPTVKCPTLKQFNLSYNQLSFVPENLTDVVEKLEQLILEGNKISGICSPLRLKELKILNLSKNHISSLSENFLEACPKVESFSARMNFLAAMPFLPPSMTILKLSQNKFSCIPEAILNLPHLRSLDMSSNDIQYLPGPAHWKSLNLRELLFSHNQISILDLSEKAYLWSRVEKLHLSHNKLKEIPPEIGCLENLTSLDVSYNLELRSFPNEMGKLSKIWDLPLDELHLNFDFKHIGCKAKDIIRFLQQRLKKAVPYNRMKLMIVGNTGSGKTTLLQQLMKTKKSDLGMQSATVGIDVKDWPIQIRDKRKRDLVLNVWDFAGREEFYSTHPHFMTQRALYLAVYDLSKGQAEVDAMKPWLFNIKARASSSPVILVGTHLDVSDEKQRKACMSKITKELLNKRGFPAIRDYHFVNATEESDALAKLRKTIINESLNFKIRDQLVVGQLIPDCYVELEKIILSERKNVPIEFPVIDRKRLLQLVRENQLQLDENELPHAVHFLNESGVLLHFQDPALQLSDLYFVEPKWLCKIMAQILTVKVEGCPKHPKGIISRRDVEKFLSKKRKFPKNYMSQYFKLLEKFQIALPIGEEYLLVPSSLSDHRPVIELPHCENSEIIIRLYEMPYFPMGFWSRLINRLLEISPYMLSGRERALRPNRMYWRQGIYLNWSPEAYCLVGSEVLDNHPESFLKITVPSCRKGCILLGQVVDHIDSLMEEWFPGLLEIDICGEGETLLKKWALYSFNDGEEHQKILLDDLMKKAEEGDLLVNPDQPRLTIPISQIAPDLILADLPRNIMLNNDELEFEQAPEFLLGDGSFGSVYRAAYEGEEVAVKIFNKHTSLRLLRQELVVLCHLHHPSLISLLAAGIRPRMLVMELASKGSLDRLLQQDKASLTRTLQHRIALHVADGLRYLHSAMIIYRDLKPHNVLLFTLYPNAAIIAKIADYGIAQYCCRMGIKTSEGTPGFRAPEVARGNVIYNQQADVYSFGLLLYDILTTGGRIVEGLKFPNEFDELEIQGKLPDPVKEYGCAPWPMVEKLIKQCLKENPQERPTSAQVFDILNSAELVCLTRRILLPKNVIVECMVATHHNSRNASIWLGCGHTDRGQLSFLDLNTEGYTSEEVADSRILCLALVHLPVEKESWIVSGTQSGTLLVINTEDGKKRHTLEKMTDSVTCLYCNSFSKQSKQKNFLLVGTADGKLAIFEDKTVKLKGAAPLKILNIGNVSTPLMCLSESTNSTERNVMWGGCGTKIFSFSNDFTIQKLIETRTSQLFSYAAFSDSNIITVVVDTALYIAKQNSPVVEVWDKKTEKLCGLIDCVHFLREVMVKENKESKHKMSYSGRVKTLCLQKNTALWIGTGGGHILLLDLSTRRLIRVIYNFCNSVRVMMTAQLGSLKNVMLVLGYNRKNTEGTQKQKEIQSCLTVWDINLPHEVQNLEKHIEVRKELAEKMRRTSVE
T4 sequence (Q5S007 970-2527 G2019S limits assumed): as the sequence (Q5S007 970-2527 limits assumed) above, with G1050S counted along it
T2 sequence (P23458 875-1153 limits assumed): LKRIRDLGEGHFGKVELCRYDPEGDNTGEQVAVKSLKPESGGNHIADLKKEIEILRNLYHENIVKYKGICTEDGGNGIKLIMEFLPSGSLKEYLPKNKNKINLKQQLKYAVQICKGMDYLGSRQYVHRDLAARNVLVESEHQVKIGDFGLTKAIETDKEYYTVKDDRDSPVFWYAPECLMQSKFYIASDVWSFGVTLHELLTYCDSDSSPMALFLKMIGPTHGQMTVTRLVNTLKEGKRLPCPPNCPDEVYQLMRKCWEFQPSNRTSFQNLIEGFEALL

Structure (SMILES) | IC50 [1] [nM] | IC50 [2] [nM] | IC50 [3] [nM] | IC50 [4] [nM] | IC50 [5] [nM]
CC(C)(C)NC(=O)c1ccc(Nc2cn(-c3c(F)cccc3Cl)nc2C(N)=O)cc1 [compound 27, 4-((4-(tert-butylcarbamoyl)phenyl)amino)-1-(2-chloro-6-fluorophenyl)-1H-pyrazole-3-carboxamide] | 10 to 100 | 100 to 1000 | 100 to 1000 | 100 to 1000 | 100 to 1000
NC(=O)c1nn(-c2c(Cl)cccc2Cl)cc1Nc1ccc(C(=O)N2CCC(N3CCCC3)C2)cc1 (stereo not shown) [compound 249, 4-((4-([1,3′-bipyrrolidine]-1′-carbonyl)phenyl)amino)-1-(2,6-dichlorophenyl)-1H-pyrazole-3-carboxamide] | < 10 | 100 to 1000 | 100 to 1000 | 100 to 1000 | 100 to 1000
NC(=O)c1nn(-c2c(Cl)cccc2Cl)cc1Nc1ccc(C(=O)N2CC[C@@H](N3CCCC3)C2)cc1 [compound 331, (R)-4-((4-([1,3′-bipyrrolidine]-1′-carbonyl)phenyl)amino)-1-(2,6-dichlorophenyl)-1H-pyrazole-3-carboxamide] | 10 to 100 | 100 to 1000 | 100 to 1000 | 100 to 1000 | 100 to 1000
CCNC(=O)c1ccc(Nc2cn(-c3c(F)cccc3F)nc2C(N)=O)cc1 [compound 16, 1-(2,6-difluorophenyl)-4-((4-(ethylcarbamoyl)phenyl)amino)-1H-pyrazole-3-carboxamide] | 10 to 100 | 100 to 1000 | 100 to 1000 | 100 to 1000 | 100 to 1000
NC(=O)c1nn(-c2c(F)cccc2Cl)cc1Nc1ccc(C(=O)N2CCOCC2)cn1 [compound 68, 1-(2-chloro-6-fluorophenyl)-4-((5-(morpholine-4-carbonyl)pyridin-2-yl)amino)-1H-pyrazole-3-carboxamide] | 10 to 100 | 100 to 1000 | 100 to 1000 | 100 to 1000 | 100 to 1000
NC(=O)c1nn(-c2c(F)cccc2F)cc1Nc1ccc(C(=O)N2CCOCC2)nc1 [compound 30, 1-(2,6-difluorophenyl)-4-((6-(morpholine-4-carbonyl)pyridin-3-yl)amino)-1H-pyrazole-3-carboxamide] | 10 to 100 | 100 to 1000 | 100 to 1000 | 100 to 1000 | 100 to 1000
Cn1nncc1-c1ccc(Nc2cn(-c3c(Cl)cccc3Cl)nc2C(N)=O)cc1 [compound 48, 1-(2,6-dichlorophenyl)-4-((4-(1-methyl-1H-1,2,3-triazol-5-yl)phenyl)amino)-1H-pyrazole-3-carboxamide] | 10 to 100 | 100 to 1000 | 100 to 1000 | 100 to 1000 | 100 to 1000
Cc1cc(Nc2cn(-c3c(F)cccc3F)nc2C(N)=O)nc(N)n1 [compound 8, 4-((2-amino-6-methylpyrimidin-4-yl)amino)-1-(2,6-difluorophenyl)-1H-pyrazole-3-carboxamide] | 100 to 1000 | 100 to 1000 | 100 to 1000 | 100 to 1000 | 10 to 100
NC(=O)c1nn(-c2c(Cl)cccc2Cl)cc1Nc1ccc(-c2nccn2CC(F)F)cc1 [compound 230, 1-(2,6-dichlorophenyl)-4-((4-(1-(2,2-difluoroethyl)-1H-imidazol-2-yl)phenyl)amino)-1H-pyrazole-3-carboxamide] | < 10 | 10 to 100 | 100 to 1000 | 100 to 1000 | 100 to 1000
NC(=O)c1nn(-c2c(F)cccc2Cl)cc1Nc1ccc(-n2ncc3c2CCOC3)cc1 [compound 208, 1-(2-chloro-6-fluorophenyll)-4-((4-(6,7-dihydropyrano[4,3-c]pyrazol-1(4H)-yl)phenyl)amino)-1H-pyrazole-3-carboxamide] | 10 to 100 | 10 to 100 | 10 to 100 | 10 to 100 | 100 to 1000
N#Cc1cn(CCO)c(-c2ccc(Nc3cn(-c4c(Cl)cccc4Cl)nc3C(N)=O)cc2)n1 [compound 361, 4-((4-(4-cyano-1-(2-hydroxyethyl)-1H-imidazol-2-yl)phenyl)amino)-1-(2,6-dichlorophenyl)-1H-pyrazole-3-carboxamide] | < 10 | 10 to 100 | 100 to 1000 | 100 to 1000 | 100 to 1000
Cc1ccnnc1-c1ccc(Nc2cn(-c3c(F)cccc3F)nc2C(N)=O)cc1 [compound 296, 1-(2,6-difluorophenyl)-4-((4-(4-methylpyridazin-3-yl)phenyl)amino)-1H-pyrazole-3-carboxamide] | 10 to 100 | 100 to 1000 | 100 to 1000 | 100 to 1000 | 100 to 1000
NC(=O)c1nn(-c2c(F)cccc2C(F)(F)F)cc1Nc1ccc(C(=O)N2CC3(CCC3)C2)cc1 [compound 61, 4-((4-(2-azaspiro[3.3]heptane-2-carbonyl)phenyl)amino)-1-(2-fluoro-6-(trifluoromethyl)phenyl)-1H-pyrazole-3-carboxamide] | 10 to 100 | 100 to 1000 | 100 to 1000 | 100 to 1000 | 100 to 1000
NC(=O)c1nn(-c2c(Cl)cccc2Cl)cc1Nc1ccc(C(=O)N2CCN(CC3CC3)CC2)cc1 [compound 86, 4-((4-(4-(cyclopropylmethyl)piperazine-1-carbonyl)phenyl)amino)-1-(2,6-dichlorophenyl)-1H-pyrazole-3-carboxamide] | < 10 | 10 to 100 | 100 to 1000 | 100 to 1000 | 100 to 1000
CC(C)(C)NC(=O)c1ccc(Nc2cn(-c3c(F)cccc3F)nc2C(N)=O)cc1 [compound 15, 4-((4-(tert-butylcarbamoyl)phenyl)amino)-1-(2,6-difluorophenyl)-1H-pyrazole-3-carboxamide] | 10 to 100 | 100 to 1000 | 100 to 1000 | 100 to 1000 | 100 to 1000
CCN(CC)CCNC(=O)c1ccc(Nc2cn(-c3c(Cl)cccc3Cl)nc2C(N)=O)cc1 [compound 422, 1-(2,6-dichlorophenyl)-4-((4-((2-(diethylamino)ethyl)carbamoyl)phenyl)amino)-1H-pyrazole-3-carboxamide] | 10 to 100 | 10 to 100 | 100 to 1000 | 100 to 1000 | 100 to 1000
CC(=O)N1CC(n2cc(C(F)(F)F)nc2-c2ccc(Nc3cn(-c4c(Cl)cccc4Cl)nc3C(N)=O)cc2)C1 [compound 342, 4-((4-(1-(1-acetylazetidin-3-yl)-4-(trifluoromethyl)-1H-imidazol-2-yl)phenyl)amino)-1-(2,6-dichlorophenyl)-1H-pyrazole-3-carboxamide] | < 10 | 100 to 1000 | 100 to 1000 | 100 to 1000 | 100 to 1000
